ChEMBL document CHEMBL1201862, “PubChem BioAssay data set” (2004)
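Compound exposure: 48 hours, 5 concentrations, 96-well plates. The concentration for 50% growth inhibition is given as GI50.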 Calls of active or inactive are those of the source. No stated cut-off is given here; in the data, active = GI50 up to about 1.1 µM and inactive = higher.

Key:
Test in all cases: DTP human tumour cell line panel, 48 h
SF-539 = tested on: SF-539
SF-295 = tested on: SF-295
UO-31 = tested on: UO-31
SNB-75 = tested on: SNB-75
K562 = tested on: K562
NCI-H23 = tested on: NCI-H23
HOP-62 = tested on: HOP-62
HCC 2998 = tested on: HCC 2998
DMS-273 = tested on: DMS-273
A549 = tested on: A549
NCI-H522 = tested on: NCI-H522
SF-268 = tested on: SF-268
XF498 = tested on: XF498
SNB-78 = tested on: SNB-78
KM-20L2 = tested on: KM-20L2
NCI-H226 = tested on: NCI-H226
MOLT-4 = tested on: MOLT-4
HCT-15 = tested on: HCT-15
SR = tested on: SR
Malme-3M = tested on: Malme-3M
EKVX = tested on: EKVX
HL-60 = tested on: HL-60
CCRF-CEM = tested on: CCRF-CEM
TK-10 = tested on: TK-10
SW-620 = tested on: SW-620
M19-MEL = tested on: M19-MEL
DLD-1 = tested on: DLD-1
SK-MEL-5 = tested on: SK-MEL-5
786-0 = tested on: 786-0
DMS-114 = tested on: DMS-114
SK-MEL-28 = tested on: SK-MEL-28
HOP-92 = tested on: HOP-92
SN12C = tested on: SN12C
OVCAR-5 = tested on: OVCAR-5
HCT-116 = tested on: HCT-116
UACC-62 = tested on: UACC-62
OVCAR-8 = tested on: OVCAR-8
U-251 = tested on: U-251
LXFL 529 = tested on: LXFL 529
SK-OV-3 = tested on: SK-OV-3
COLO 205 = tested on: COLO 205
ACHN = tested on: ACHN
RPMI-8226 = tested on: RPMI-8226
OVCAR-3 = tested on: OVCAR-3
RXF 393 = tested on: RXF 393
KM12 = tested on: KM12
NCI-H460 = tested on: NCI-H460
HOP-18 = tested on: HOP-18
UACC-257 = tested on: UACC-257
HT-29 = tested on: HT-29
SK-MEL-2 = tested on: SK-MEL-2
OVCAR-4 = tested on: OVCAR-4
M14 = tested on: M14
IGROV-1 = tested on: IGROV-1
A498 = tested on: A498
SNB-19 = tested on: SNB-19
CAKI-1 = tested on: CAKI-1
LOX IMVI = tested on: LOX IMVI

In the case of `S=c1sc2c(Cl)nc(Cl)nc2n1-c1ccccc1`, the GI50 (SF-539) was > 100 µM (inactive), the GI50 (SF-295) was > 100 µM (inactive) and the GI50 (UO-31) was > 100 µM (inactive). For the same compound, the GI50 (SNB-75) was 82.6 µM (inactive), the GI50 (K562) was 29 µM (inactive) and the GI50 (NCI-H23) was 15.7 µM (inactive). For the same compound, the GI50 (HOP-62) was 59.6 µM (inactive), the GI50 (HCC 2998) was 52.4 µM (inactive) and the GI50 (DMS-273) was 45.9 µM (inactive). The GI50 (A549) was > 100 µM (inactive), the GI50 (NCI-H522) was 11.5 µM (inactive) and the GI50 (SF-268) was 11.1 µM (inactive). The GI50 (XF498) was 94.2 µM (inactive), the GI50 (SNB-78) was 13.3 µM (inactive) and the GI50 (KM-20L2) was 52.6 µM (inactive). The GI50 (NCI-H226) was 61.2 µM (inactive), the GI50 (MOLT-4) was 32.4 µM (inactive) and the GI50 (HCT-15) was 18.1 µM. The GI50 (SR) was 22.3 µM (inactive), the GI50 (Malme-3M) was 8.11 µM (inactive) and the GI50 (EKVX) was 61 µM (inactive). For the same compound, the GI50 (HL-60) was 23.5 µM (inactive), the GI50 (CCRF-CEM) was 23.1 µM (inactive) and the GI50 (TK-10) was > 100 µM (inactive). The GI50 (SW-620) was 27.2 µM (inactive), the GI50 (M19-MEL) was 16.4 µM (inactive) and the GI50 (DLD-1) was 16.2 µM (inactive). For the same compound, the GI50 (SK-MEL-5) was 64.4 µM (inactive), the GI50 (786-0) was > 100 µM (inactive) and the GI50 (DMS-114) was 14.2 µM (inactive). The GI50 (SK-MEL-28) was 15.6 µM (inactive), the GI50 (HOP-92) was > 100 µM (inactive) and the GI50 (SN12C) was 46.2 µM (inactive). The GI50 (OVCAR-5) was > 100 µM (inactive), the GI50 (HCT-116) was 16.4 µM (inactive) and the GI50 (UACC-62) was 14.6 µM (inactive). The GI50 (OVCAR-8) was 36.6 µM (inactive), the GI50 (U-251) was 31 µM (inactive) and the GI50 (LXFL 529) was 17.9 µM (inactive). The GI50 (SK-OV-3) was > 100 µM (inactive), the GI50 (COLO 205) was > 100 µM (inactive) and the GI50 (ACHN) was > 100 µM (inactive). For the same compound, the GI50 (RPMI-8226) was > 100 µM (inactive), the GI50 (OVCAR-3) was 22.9 µM (inactive) and the GI50 (RXF 393) was 21.6 µM (inactive). The GI50 (KM12) was > 100 µM (inactive), the GI50 (NCI-H460) was > 100 µM (inactive) and the GI50 (HOP-18) was > 100 µM (inactive). The GI50 (UACC-257) was 53 µM (inactive), the GI50 (HT-29) was 33 µM (inactive) and the GI50 (SK-MEL-2) was 31.7 µM (inactive). For the same compound, the GI50 (OVCAR-4) was 41.3 µM (inactive), the GI50 (M14) was 21.1 µM (inactive) and the GI50 (IGROV-1) was 18.2 µM (inactive). For the same compound, the GI50 (A498) was > 100 µM (inactive), the GI50 (SNB-19) was > 100 µM (inactive) and the GI50 (CAKI-1) was > 100 µM (inactive). The GI50 (LOX IMVI) was 34.8 µM (inactive).
